# Experimental data as given in paper PMC7247319, “The mitochondria-targeted peptide SS-31 binds lipid bilayers and modulates surface electrostatics as a key component of its mechanism of action” (The Journal of Biological Chemistry, 2020).
# Where a SMILES comes first, the peptide text is derived from it. [ ]: non-standard residue; d: D form. Dmt = Cc1cc(O)cc(C)c1C[C@H](N)C(=O)O
# Legend:
# isolated mitochondria [1] = test: TMRM time course of ΔΨm generation in mitochondria with ETH-129 and calcium; parameters: species or system S. cerevisiae
# Method: Figure 7. SS peptide effects on Ca^2+-membrane interactions and mitochondrial cation stress. A, profiles of surface potential decay (top) and ion distribution (bottom) based on GCS theory in the presence or absence of SS-31 (see supporting Results H for model description). B, effect of SS peptides on Ca^2+ accumulation at model membrane interfaces. Time course measurements of CG-5N emission were performed in solutions with LUVs (20 mol % TOCL in host POPC background, [lipid]^eff = 100 μM) prebound with SS peptide at the indicated concentration followed by titration of CaCl2 in increments of 1 nmol at 20-s intervals starting at t = 60 s. […] Spectral deconvolution yielded the indicated components (see Fig. S19, A and B), which were used to quantify the area ratios of L2/iso in F (values shown are means ± S.D. (error bars) (n = 3). G, respirometry analysis. Mitochondria (1 mg ml^−1) were treated in the absence or presence of SS-31 (54.4 μM) or CaCl2 (1 mM) as indicated and measured for state 2 respiration (n = 10–12 each).
# Second, we measured the effects of SS peptides on mitochondrial Ca^2+ flux. […] In these experiments, we monitored the relative ΔΨm using the potentiometric probe tetramethylrhodamine methyl ester (TMRM) (the emission of which is inversely related to membrane potential; Fig. S17E) and, in parallel, monitored the external [Ca^2+] using CG-5N (Fig. 7C and Fig. S18A). […]
# isolated mitochondria [2] = test: 31P ssNMR of mitochondrial membrane integrity under calcium stress; parameters: species or system S. cerevisiae
# Method: Figure 7. SS peptide effects on Ca^2+-membrane interactions and mitochondrial cation stress. A, profiles of surface potential decay (top) and ion distribution (bottom) based on GCS theory in the presence or absence of SS-31 (see supporting Results H for model description). B, effect of SS peptides on Ca^2+ accumulation at model membrane interfaces. Time course measurements of CG-5N emission were performed in solutions with LUVs (20 mol % TOCL in host POPC background, [lipid]^eff = 100 μM) prebound with SS peptide at the indicated concentration followed by titration of CaCl2 in increments of 1 nmol at 20-s intervals starting at t = 60 s. C and D, effect of SS peptides on mitochondrial Ca^2+ uptake. […] Spectral deconvolution yielded the indicated components (see Fig. S19, A and B), which were used to quantify the area ratios of L2/iso in F (values shown are means ± S.D. (error bars) (n = 3). G, respirometry analysis. Mitochondria (1 mg ml^−1) were treated in the absence or presence of SS-31 (54.4 μM) or CaCl2 (1 mM) as indicated and measured for state 2 respiration (n = 10–12 each).
# Finally, we measured the effects of SS peptides on mitochondrial calcium stress that may occur independently of Ca^2+ uptake into the matrix. […] To corroborate these findings, we measured mitochondrial oxygen consumption rates under similar conditions of SS peptide treatment and calcium stress. […]
compound,measurement,setting,value
"Cc1cc(O)cc(C)c1C[C@H](NC(=O)[C@H](N)CCCNC(=N)N)C(=O)N[C@@H](CCCCN)C(=O)N[C@@H](Cc1ccccc1)C(N)=O [SS-31, D-Arg-2′6′-dimethyl-Tyr-Lys-Phe-NH2] (H-[dR][Dmt]KF-NH2)",dose response of effect on Ca2+-dependent ΔΨm generation delay,"isolated mitochondria [1]; 25 μM CaCl2, 1 mM NADH, n = 3",dose-dependent and saturable
same,effect on temporal delay in mitochondrial energization (ΔΨm generation) with Ca2+,"isolated mitochondria [1]; ETH-129, NADH, increasing [Ca2+], TMRM",reduced the extent of this temporal delay
same,effect on NMR-detected membrane degradation caused by high calcium load,"isolated mitochondria [2]; acute treatment 8.5 nmol of peptide/mg of mitochondrial protein (0.6 mM, 70 mg ml^−1), up to 5 mM CaCl2, 4 °C",reduced NMR-detected membrane degradation
same,"effect on L2 peak (lamellar phospholipid bilayers), L2/iso area ratio","isolated mitochondria [2]; spectral deconvolution, 5 mM CaCl2, n = 3",significant preservation of the L2 peak
